The target of one experiment is T1, human ETB receptor (Homo sapiens, UniProt P24530).
T1 construct: expressed in transfected cells; host or cells: CHO-K1 cells, pRc-CMW (so in the source) expression vector, electroporation; membranes used
T1 sequence (P24530 27-442): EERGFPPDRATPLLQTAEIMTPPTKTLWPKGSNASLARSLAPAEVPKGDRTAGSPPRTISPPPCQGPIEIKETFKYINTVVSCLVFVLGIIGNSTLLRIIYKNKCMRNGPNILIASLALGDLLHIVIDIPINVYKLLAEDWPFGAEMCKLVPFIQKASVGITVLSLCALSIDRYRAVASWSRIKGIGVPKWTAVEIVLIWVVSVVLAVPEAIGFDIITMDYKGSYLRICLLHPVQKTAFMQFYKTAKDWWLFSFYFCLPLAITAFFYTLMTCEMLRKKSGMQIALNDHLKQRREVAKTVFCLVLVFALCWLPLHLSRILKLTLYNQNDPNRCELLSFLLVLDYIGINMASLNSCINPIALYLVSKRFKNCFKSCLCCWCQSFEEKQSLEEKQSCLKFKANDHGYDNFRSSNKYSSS
In words: ERBA-B: [125I]-ET-1 binding, recombinant human ETB receptor expressed in CHO-K1 cells. Conditions: human cloned ETB receptor, read-out: ERBA-B IC50, human cloned receptor data.

The target of experiment [1] is T2, ETA (Oryctolagus cuniculus, UniProt A5A8K3).
T2 sequence (A5A8K3 21-427): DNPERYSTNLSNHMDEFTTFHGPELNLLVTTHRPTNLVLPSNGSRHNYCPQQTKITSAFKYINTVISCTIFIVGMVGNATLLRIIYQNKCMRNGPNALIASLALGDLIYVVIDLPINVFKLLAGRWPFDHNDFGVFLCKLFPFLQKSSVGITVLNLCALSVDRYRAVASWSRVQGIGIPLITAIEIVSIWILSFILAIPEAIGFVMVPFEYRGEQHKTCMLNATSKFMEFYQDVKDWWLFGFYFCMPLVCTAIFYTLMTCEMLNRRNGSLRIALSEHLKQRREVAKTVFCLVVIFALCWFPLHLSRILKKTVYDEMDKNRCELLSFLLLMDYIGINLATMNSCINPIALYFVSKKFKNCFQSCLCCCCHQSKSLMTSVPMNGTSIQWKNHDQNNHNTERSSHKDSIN
Particulars: for inhibition at 10 µM: read-out: ERBA-A % inhibition.
Procedure: The cells used were rabbit renal artery vascular smooth muscle cells grown in a 48-well dish (1 cm^2) (confluent cells).
The growth media was Dulbecco's Modified Eagles/Ham's F12 which contained 10% fetal bovine serum and antibiotics (penicillin/streptomycin/fungizone).
Second, remove the assay buffers, place the dish on ice, and add 150 μL of cold assay buffer described above to each well. […] Next, place dish in a 37° C., water bath for about 2 hours and gently agitate the dish every 15 minutes. Discard the radioactive incubation mixture in the sink and wash wells 3 times with 1 mL of cold phosphate buffered saline.

For experiment [2], the target named is T2, ETA. In words: VERA-A: antagonism of ET-1 stimulated vasoconstriction in the rabbit femoral artery (ETA). The format is cell-based. Conditions: ET-1, rabbit femoral artery; read-out: VERA-A pA2 (converted). The procedure: Male New Zealand rabbits were killed by cervical dislocation and exsanguination. Femoral and pulmonary arteries were isolated, cleaned of connective tissue, and cut into 4-mm rings. The endothelium was denuded by placing the rings over hypodermic tubing (32 gauge for femoral rings and 28 gauge for pulmonary rings, Small Parts, Inc, Miami, Fla.) and gently rolling them. […] Resting tension was adjusted to 3.0 g for femoral and 4.0 g pulmonary arteries; the rings were left for 90 minutes to equilibrate.

A further experiment deals with T3, ETB (Rattus norvegicus, UniProt P21451).
T3 sequence (P21451 27-442): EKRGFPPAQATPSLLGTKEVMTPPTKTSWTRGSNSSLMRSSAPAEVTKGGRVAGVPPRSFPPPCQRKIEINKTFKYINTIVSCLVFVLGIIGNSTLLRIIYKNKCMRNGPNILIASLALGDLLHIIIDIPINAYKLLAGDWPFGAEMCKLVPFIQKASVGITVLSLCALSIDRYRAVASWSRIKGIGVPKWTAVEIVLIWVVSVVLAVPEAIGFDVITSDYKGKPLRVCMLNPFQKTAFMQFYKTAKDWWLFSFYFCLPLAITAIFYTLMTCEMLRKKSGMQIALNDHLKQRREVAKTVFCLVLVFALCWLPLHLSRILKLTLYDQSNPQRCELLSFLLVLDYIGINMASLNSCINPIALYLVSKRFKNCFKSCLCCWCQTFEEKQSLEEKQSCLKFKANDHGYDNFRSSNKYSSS

[3] abbreviates: ERBA-A IC50, [125I]-ET-1, rabbit renal artery vascular smooth muscle cells.
Where [4] appears, read: read-out: ERBA-A IC50, [125I]-ET-1, rabbit renal artery vascular smooth muscle cells.
Where [5] appears, read: read-out: ERBA-B IC50, [125I]-ET-1, rat cerebellar membranes.

One may read the IC50 as the concentration at which inhibition is half-maximal. As usually defined, the inhibition is the share of the control response that was lost under treatment.

Like-named read-outs stand apart in the source and are kept apart here.

`COc1ccc(C2(O)OC(=O)C(c3ccc4c(c3)OCO4)=C2Cc2ccc(OC(C)C)cc2)cc1` (stereo not shown) [Example 84, 3-Benzo[1,3]dioxol-5-yl-5-hydroxy-4-(isopropoxybenzyl)-5-(4-methoxyphenyl)-5H-furan-2-one]: the results for the IC50 on human ETB receptor and against ETA [1] (setting [3]) were 1.4 µM and 0.0033 µM, respectively. For the same compound, on ETA [2], the Kb is 0.158 µM.

Turning to `COc1ccc(C(=O)/C(Cc2ccccc2OC)=C(\C(=O)O)c2ccc3c(c2)OCO3)cc1`, on ETA [2], the Kb was 0.251 µM.

As to `COc1ccc(C2(O)OC(=O)C(c3ccc4c(c3)OCO4)=C2Cc2ccc(SC)cc2)cc1` (stereo not shown) [Example 236, 3-Benzo[1,3]dioxol-5-yl-5-hydroxy-5-(4-methoxyphenyl)-4-(4-methylsulfanylbenzyl)-5H-furan-2-one], it took 0.23 µM to reach half-maximal inhibition against ETA [1] (setting [3]) (IC50). The Kb on ETA [2] is 0.316 µM.

As to `O=C1OC(O)(c2ccc(Cl)cc2)C(Cc2cccc(Cl)c2)=C1c1ccc2c(c1)OCO2` (stereo not shown) [Example 74, 2(5H)-Furanone, 3-(1,3-benzodioxol-5)-5-(4-chlorophenyl)-4-[(3-chlorophenyl)methyl]-5-hydroxy], the IC50 at ETA [1] (setting [4]) worked out at 2.5 µM; at ETB (setting [5]), 12 µM.

Consider `COc1ccc(CC2=C(c3ccc(OC)c(OC)c3)C(=O)OC2(O)c2ccc(Cl)cc2)cc1OC` (racemic) [Example 68, 2(5H)-Furanone, 5-(4-chlorophenyl)-3-(3,4-dimethoxyphenyl)-4-[(3,4-dimethoxyphenyl)methyl]-5-hydroxy-, (±)-], for which the IC50 on ETA [1] (setting [3]) is 1.7 µM; at ETB, 9.8 µM.

As for `COc1ccc(C2(O)OC(=O)C(c3ccc4c(c3)OCO4)=C2Cc2ccc(C(C)(C)C)cc2)cc1` (stereo not shown) [Example 79, 3-Benzo[1,3]dioxol-5-yl-4-(4-tert-butylbenzyl)-5-hydroxy-5-(4-methoxyphenyl)-5H-furan-2-one], the IC50 against ETA [1] (setting [3]) was determined as 0.084 µM; at ETB it was 0.52 µM.

On to `COc1ccc(C2(O)OC(=O)C(c3cc(OC)cc(OC)c3)=C2Cc2ccccc2)cc1` (stereo not shown) [Example 125, 4-Benzyl-3-(3,5-dimethoxyphenyl)-5-hydroxy-5-(4-methoxyphenyl)-5H-furan-2-one], for which the IC50 on ETA [1] (setting [3]) turned out to be 0.029 µM; at ETB it was 0.2 µM.

On to `COc1ccc(C2(O)OC(=O)C(c3cccc(OC)c3)=C2Cc2ccccc2)cc1` (stereo not shown) [Example 153, 4-Benzyl-5-hydroxy-5-(4-methoxyphenyl)-3-(3-methoxyphenyl)-5H-furan-2-one], for which the results for the IC50 on ETA [1] (setting [3]) and against ETB were 0.36 µM and 2 µM, respectively.

For `O=C1OC(O)(c2ccccc2)C(Cc2ccsc2)=C1c1ccc2c(c1)OCO2` (stereo not shown) [Example 26, 2(5H)-Furanone, 3-(1,3-benzodioxol-5-yl)-5-hydroxy-5-phenyl-4-(3-thienylmethyl)-], the figures for the half-maximal inhibitory concentration (IC50) against ETA [1] (setting [3]) and at ETB were 0.79 µM and 15.5 µM, respectively.

Turning to `COc1ccc(C2(O)OC(=O)C(c3cn(C)c4ccccc34)=C2Cc2ccccc2)cc1` (stereo not shown) [Example 170], the half-maximal inhibitory concentration (IC50) on ETA [1] (setting [3]) is 1.3 µM; against ETB it was 0.9 µM.

Take `CC(C)c1ccc(C2=C(Cc3ccccc3)C(O)(c3ccc(Cl)cc3)OC2=O)cc1` (racemic) [Example 4, 2(5H)-Furanone, 5-(4-chlorophenyl)-5-hydroxy-3-[4-(1-methylethyl)phenyl]-4-(phenylmethyl)- , (±)-]: the inhibition at 10 µM on ETA [1] was found to be 34%; on ETB (read-out: ERBA-B % inhibition) it was 52%.

Turning to `Cc1cccc(CC2=C(c3ccc4c(c3)OCO4)C(=O)OC2(O)c2ccc(Cl)cc2)c1` (stereo not shown) [Example 34, 2(5H)-Furanone, 3-(1,3-benzodioxol-5-yl)-5-(4-chlorophenyl)-5-hydroxy-4-[(3-methylphenyl)methyl]-], the IC50 at ETA [1] (setting [3]) was determined as 1.3 µM; on ETB it was 7 µM.

`COc1ccc(C2(O)OC(=O)C(c3ccc4c(c3)OCO4)=C2Cc2ccccc2)c(OC)c1` (stereo not shown) [Example 241, 3-Benzo[1,3]dioxol-5-yl-4-benzyl-5-(2,4-dimethoxyphenyl)-5-hydroxy-5H-furan-2-one] showed an IC50 at ETA [1] (setting [3]) of 0.035 µM. Moreover, the Kb on ETA [2] was 0.631 µM.

With `CC(C)c1ccc(C2=C(Cc3ccc4ccccc4c3)C(O)(c3ccc(Cl)cc3)OC2=O)cc1` (racemic) [Example 41, 2(5H)-Furanone, 5-(4-chlorophenyl)-5-hydroxy-3-[4-(1-methylethyl)phenyl]-4-(2-naphthalenylmethyl)-, (±)-], the inhibition at 10 µM at ETA [1] came out at 37%. On ETB, this compound displayed a 50% inhibitory concentration (IC50) of 9 µM.

With `O=C1OC(O)(c2ccc(Cl)cc2)C(Cc2ccc3c(c2)OCO3)=C1c1ccc2c(c1)OCO2` (racemic) [Example 46, 2(5H)-Furanone, 3-(1,3-benzodioxol-5-yl)-4-(1,3-benzodioxol-5-ylmethyl)-5-(4-chlorophenyl)-5-hydroxy-, (±)-], the IC50 at ETA [1] (setting [3]) amounted to 3.6 µM; against ETB, 6.4 µM.

As for `O=C1OC(O)(c2c(F)cccc2F)C(Cc2ccccc2)=C1c1ccc2c(c1)OCO2` (stereo not shown) [Example 158, 3-Benzo[1,3]dioxol-5-yl-4-benzyl-5-(2,6-difluorophenyl)-5-hydroxy-5H-furan-2-one], the IC50 on ETA [1] (setting [3]) was 2.3 µM; against ETB it was 21 µM.

As to `O=C1OC(O)(c2ccc(Cl)cc2)C(Cc2ccc3ccccc3c2)=C1c1ccc2c(c1)OCO2` (racemic) [Example 43, 2(5H)-Furanone, 3-(1,3-benzodioxol-5-yl)-5-(4-chlorophenyl)-5-hydroxy-4-(2-naphthalenylmethyl)-, (±)-], the results for the IC50 on ETA [1] (setting [4]) and at ETB (setting [5]) were 2.7 µM and 7 µM, respectively.

In the case of `Cc1ccc(CC2=C(c3ccc4c(c3)OCO4)C(=O)OC2(O)c2ccc(Cl)cc2)cc1` (stereo not shown) [Example 33, 2(5H)-Furanone, 3-(1,3-benzodioxol-5-yl)-5-(4-chlorophenyl)-5-hydroxy-4-[(4-methylphenyl)methyl]-], the figures for the IC50 on ETA [1] (setting [3]) and at ETB were 3.5 µM and 5.7 µM, respectively.

Take `COc1ccc(C2(O)OC(=O)C(c3cc(OC)cc(OC)c3)=C2Cc2cccc(C=O)c2)cc1` (stereo not shown) [Example 134, 3-[4-(3,5-Dimethoxyphenyl)-2-hydroxy-2-(4-methoxyphenyl)-5-oxo-2,5-dihydrof uran-3-ylmethyl]benzaldehyde]: the IC50 against ETA [1] (setting [3]) is 0.024 µM; at ETB, 1.2 µM.

As for `Cn1cc(CC2=C(c3ccc4c(c3)OCO4)C(=O)OC2(O)c2ccc(Cl)cc2)c2ccccc21` (racemic) [Example 66, 2 (5H)-Furanone, 3-(1,3-benzodioxol-5-yl)-5-(4-chlorophenyl)-5-hydroxy-4-[(1-methyl-1H-indol-3-yl)methyl], (±)-], the IC50 amounted to 2.4 µM on ETA [1] (setting [3]) and 7.4 µM at ETB.

In the case of `COc1cccc(C2(O)OC(=O)C(c3ccc4c(c3)OCO4)=C2Cc2ccccc2)c1` (stereo not shown) [Example 220, 3-Benzo[1,3]dioixol-5-yl-4-benzyl-5-hydroxy-5-(3-methoxyphenyl)-5H-furan-2-one], the half-inhibitory concentration (IC50) on ETA [1] (setting [3]) is 0.3 µM; against ETB, 1.5 µM.

Take `CC(C)c1ccc(CC2=C(c3ccc(Cl)c(Cl)c3)C(=O)OC2(O)c2ccc(Cl)cc2)cc1` (stereo not shown) [Example 118, 5-(4-Chlorophenyl)-3-(3,4-dichlorophenyl)-5-hydroxy-4-(4-isopropylbenzyl)-5 H-furan-2-one]: the 50% inhibitory concentration (IC50) was 0.54 µM at ETA [1] (setting [3]) and 13 µM against ETB.

`O=C1OC(O)(c2ccc(Cl)cc2)C(Cc2ccsc2)=C1c1ccc2c(c1)OCO2` (stereo not shown) [Example 48, 2(5H)-Furanone, 3-(1,3-benzodioxol-5-yl)-5-(4-chlorophenyl)-5-hydroxy-4-(3-thienylmethyl)-]: the figures for the 50% inhibitory concentration (IC50) against ETA [1] (setting [3]) and on ETB were 1.2 µM and 6.2 µM, respectively.

(Values after patent US5691373A, “Nonpeptide endothelin antagonists I” (Warner-Lambert Company, priority 1995, dated 1997).)
